Tests used:
bulrush (Sc) = experiment: Test Example 1: herbicidal effects by paddy field soil treatment; assay type: in vivo; settings: 100 g of the active ingredient per 10 ares, 21st day after the application, index 0-5 of Table 47;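 further: grade of growth control; 5 = at least 90%; 4 = 70 to 90%; 3 = 50 to 70%; 2 = 30 to 50%; 1 = 10 to 30%; 0 = under 10%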
Method in brief: (§1)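 Greenhouse pot test in flooded paddy soil, dosed at 100 g a.i. per 10 ares; effect scored on day 21.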

barnyardgrass (Ec) [1] = experiment: as above; assay type: in vivo; settings: 100 g of the active ingredient per 10 ares, 21st day after the application, index 0-5 of Table 47
Method in brief: as §1

monochoria (Mo) = experiment: as above; assay type: in vivo; settings: 100 g of the active ingredient per 10 ares, 21st day after the application, index 0-5 of Table 47;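 further: grade of growth control; 5 = at least 90%; 4 = 70 to 90%; 3 = 50 to 70%; 2 = 30 to 50%; 1 = 10 to 30%; 0 = under 10%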
Method in brief: as §1

slender amaranth (Am) [2] = experiment: Test Example 2: herbicidal effects by upland field soil treatment; assay type: in vivo; settings: 100 g of the active ingredient per 10 ares, evaluated on the 21st day after application;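 further: grade of growth control; 5 = at least 90%; 4 = 70 to 90%; 3 = 50 to 70%; 2 = 30 to 50%; 1 = 10 to 30%; 0 = under 10%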
Text: (§2) (Test on Herbicidal Effects by Upland Field Soil Treatment)

barnyardgrass (Ec) [3] = experiment: as above; assay type: in vivo; settings: 100 g of the active ingredient per 10 ares, evaluated on the 21st day after application
Text: as §2

[4] = system: common lambsquarters (Ch); experiment: as above; assay type: in vivo; settings: 100 g of the active ingredient per 10 ares, evaluated on the 21st day after application
Text: as §2

pale smartweed (Po) [5] = experiment: as above; assay type: in vivo; settings: 100 g of the active ingredient per 10 ares, evaluated on the 21st day after application
Text: as §2

Digitaria ciliaris (Di) = experiment: as above; assay type: in vivo; settings: 100 g of the active ingredient per 10 ares, evaluated on the 21st day after application;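 further: grade of growth control; 5 = at least 90%; 4 = 70 to 90%; 3 = 50 to 70%; 2 = 30 to 50%; 1 = 10 to 30%; 0 = under 10%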
Text: as §2

rice flatsedge (Ci) [6] = experiment: as above; assay type: in vivo; settings: 100 g of the active ingredient per 10 ares, evaluated on the 21st day after application
Text: as §2

corn (Ze) = experiment: Test Example 11: crop plant selectivity by upland field foliage treatment (corn), phytotoxicity; settings: dose 1.6 g ai/10a
Method: (§3) (Test on Crop Plant Selectivity by Upland Field Foliage Treatment)
(§4) In a plastic pot (surface area: 600 cm^2) filled with sand, corn (Ze), pale smartweed (Po), slender amaranth (Am), common lambsquarters (Ch) and China jute (Ab) were sown and cultured in a green house for 2 weeks. […] The plants were then cultured in a green house, and the evaluation of the herbicidal effects and phytotoxicity was conducted on the 14th day after the treatment in accordance with the standards as identified in Table 47.

slender amaranth (Am) [7] = experiment: Test Example 3: herbicidal effects by upland field foliage treatment; assay type: in vivo; parameters: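 grade of growth control; 5 = at least 90%; 4 = 70 to 90%; 3 = 50 to 70%; 2 = 30 to 50%; 1 = 10 to 30%; 0 = under 10%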; settings: 100 g active ingredient per 10 ares, evaluated 14th day after treatment
Method in brief: (§5)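 Seeds → sand pot (120 cm^2) → soil cover → greenhouse 2 wk → foliar treatment → greenhouse → herbicidal score at 14 d post-treatment against graded standards.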

barnyardgrass (Ec) [8] = experiment: as above; assay type: in vivo; parameters: scale not given here; settings: 100 g active ingredient per 10 ares, evaluated 14th day after treatment
Method in brief: as §5

[9] = system: common lambsquarters (Ch); experiment: as above; assay type: in vivo; parameters: scale not given here; settings: 100 g active ingredient per 10 ares, evaluated 14th day after treatment
Method in brief: as §5

pale smartweed (Po) [10] = experiment: as above; assay type: in vivo; parameters: scale not given here; settings: 100 g active ingredient per 10 ares, evaluated 14th day after treatment
Method in brief: as §5

rice flatsedge (Ci) [11] = experiment: as above; assay type: in vivo; parameters: scale not given here; settings: 100 g active ingredient per 10 ares, evaluated 14th day after treatment
Method in brief: as §5

Diaitaria ciliaris (Di) = experiment: as above; assay type: in vivo; parameters: scale not given here; settings: 100 g active ingredient per 10 ares, evaluated 14th day after treatment
Method in brief: as §5

slender amaranth (Am) [12] = experiment: Test Example 11: crop plant selectivity by upland field foliage treatment (corn), herbicidal effects; assay type: in vivo; parameters: scale not given here; settings: dose 1.6 g ai/10a
Method: as §3, §4

[13] = system: common lambsquarters (Ch); experiment: as above; assay type: in vivo; parameters: scale not given here; settings: dose 1.6 g ai/10a
Method: as §3, §4

pale smartweed (Po) [14] = experiment: as above; assay type: in vivo; parameters: scale not given here; settings: dose 1.6 g ai/10a
Method: as §3, §4

China jute (Ab) [15] = experiment: as above; assay type: in vivo; parameters: scale not given here; settings: dose 1.6 g ai/10a
Method: as §3, §4

wheat (Tr) = experiment: Test Example 9: crop plant selectivity by upland field foliage treatment (wheat), phytotoxicity; settings: dose 1.6 g ai/10a, 14th day after treatment
Method in brief: (§6)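 Wheat and weeds sown in sand-filled pots, grown 2 weeks in a greenhouse, then foliage-treated. Herbicidal effect and crop phytotoxicity were scored 14 days after treatment against a rating scale.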

slender amaranth (Am) [16] = experiment: Test Example 9: crop plant selectivity by upland field foliage treatment (wheat), herbicidal effects; assay type: in vivo; parameters: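 grade of growth control; 5 = at least 90%; 4 = 70 to 90%; 3 = 50 to 70%; 2 = 30 to 50%; 1 = 10 to 30%; 0 = under 10%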; settings: dose 1.6 g ai/10a, 14th day after treatment
Method in brief: as §6

[17] = system: common lambsquarters (Ch); experiment: as above; assay type: in vivo; parameters: scale not given here; settings: dose 1.6 g ai/10a, 14th day after treatment
Method in brief: as §6

pale smartweed (Po) [18] = experiment: as above; assay type: in vivo; parameters: scale not given here; settings: dose 1.6 g ai/10a, 14th day after treatment
Method in brief: as §6

China jute (Ab) [19] = experiment: as above; assay type: in vivo; parameters: scale not given here; settings: dose 1.6 g ai/10a, 14th day after treatment
Method in brief: as §6

[20] = upland field foliage treatment (corn test), 14th day after treatment

Cn1c(C(F)(F)F)ccc(-c2cc3c(cc2F)OCC(=O)N3CC#N)c1=O [Compound 2-17]
5: Herbicidal effects Sc (bulrush (Sc)) | Herbicidal effects Ec (barnyardgrass (Ec) [1]) | Herbicidal effects Mo (monochoria (Mo)) | Herbicidal effects Am (slender amaranth (Am) [2]) | Herbicidal effects Ec (barnyardgrass (Ec) [3]) | Herbicidal effects Ch [4] | Herbicidal effects Po (pale smartweed (Po) [5]) | Herbicidal effects Di (Digitaria ciliaris (Di)) | Herbicidal effects Ci (rice flatsedge (Ci) [6]) | Herbicidal effects Am (slender amaranth (Am) [7]) | Herbicidal effects Ec (barnyardgrass (Ec) [8]) | Herbicidal effects Ch [9] | Herbicidal effects Po (pale smartweed (Po) [10]) | Herbicidal effects Ci (rice flatsedge (Ci) [11]) | Herbicidal effects Di (Diaitaria ciliaris (Di)) | Herbicidal effects Am (slender amaranth (Am) [12]; [20]) | Herbicidal effects Ch [13, 20] | Herbicidal effects Po (pale smartweed (Po) [14]; [20]) | Herbicidal effects Ab (China jute (Ab) [15]; [20])
2: Phytotoxicity Ze (corn (Ze); upland field foliage treatment, 14th day after treatment)

CCC(Br)c1cc2c(-c3ccc(C(F)(F)F)n(C)c3=O)c(F)cc(Cl)c2o1 (stereo not drawn) [Compound 4-38]
5: Herbicidal effects Am (slender amaranth (Am) [12]; slender amaranth, foliage treatment, evaluated on 14th day after treatment, index per Table 47) | Herbicidal effects Ch ([13]; common lambsquarters, foliage treatment, evaluated on 14th day after treatment, index per Table 47) | Herbicidal effects Po (pale smartweed (Po) [14]; pale smartweed, foliage treatment, evaluated on 14th day after treatment, index per Table 47) | Herbicidal effects Ab (China jute (Ab) [15]; China jute, foliage treatment, evaluated on 14th day after treatment, index per Table 47) | Herbicidal effects Am (slender amaranth (Am) [16]) | Herbicidal effects Ch [17] | Herbicidal effects Po (pale smartweed (Po) [18]) | Herbicidal effects Ab (China jute (Ab) [19])
2: Phytotoxicity Ze (corn (Ze); corn, foliage treatment, evaluated on 14th day after treatment, index per Table 47) | Phytotoxicity Tr (wheat (Tr))

Reference: US6472348B1, “Pyridone derivatives and herbicides” (Kumiai Chemical Industry Co., Ltd., priority 1996, dated 2002)
